Measured values taken from patent US20250090875A9, “IMMUNOSTIMULATORY COMPOUNDS AND CONJUGATES” (Seagen Inc., priority 2021, published 2025).
Entries after “also recorded” stand apart in the source; their conditions may differ.

Columns and labels:
CT26 tumors = type: in vivo; conditions: targeted ADC, intraperitoneal, every 7 days, 3 doses; for mice surviving at the end of the study: 6 mice per group
Description: This example covers in vivo assessments of anti-tumor activity of ADCs with TLR7/8 agonists. An in vivo syngeneic system was used to assess the ability of the ADCs having TLR ⅞ agonists as the payload to induce immune responses and drive an anti-tumor immune response using a subcutaneous, heterotopic mouse colon carcinoma model (a CT26 system). Female Balb/c mice were implanted with 1×10^5 CT26 cells sub-cutaneously in the flank on day 0. When mean tumor size of 100 mm^3 (measured using the formula: Volume (mm^3)=0.5*Length*Width^2 where length is the longer dimension) was reached, the mice were randomized into treatment groups of 6 mice per group. Animals were then treated intraperitoneally with the indicated treatment every 7 days, for 3 doses total. Stock concentrations of the ADCs were diluted to the appropriate concentration and injected into animals in 100 μL volumes. Tumor length and width and mouse weights were measured throughout the study and tumor volume was calculated using the formula above. Animals were followed until tumor volume reached 1000 mm^3, when animals were then euthanized.

Renca tumors = assay: Renca kidney carcinoma model in Balb/c mice; type: in vivo, mouse; conditions: targeted or non-targeted conjugates, N1 vs C4 linkage, different linkers, with or without PEG
Description: The difference in anti-tumor activity of the S18a and S18b conjugates was also assessed in the Renca kidney model. In this model, mice bearing Renca tumors were treated q7dx3 when tumors reached ˜100 mm^3 as indicated, and followed for mean group tumor growth (FIG. 14, top) and survival (FIG. 14, bottom) over time.
This example covers cancer treatment with EphA2 targeted TLR agonists. […] Balb/c mice were implanted with Renca tumor cells and when cells reached 100 mm^3 they were treated Q7dx3 treatments with 2.4 mg/kg of the indicated IDC, either non targeting isotype or an EphA2 targeting mAb.

primary human PBMCs = assay: Cytokine induction in primary human PBMCs by small molecule TLR7/8 agonists (Luminex); type: cell-based; conditions: for potency and activity of cytokine induction (IL6, TNFα, MCP1, IP10): ranking; for potency to activate human PBMCs (IL6, IL1b, MIP1b, TNFα): compared with S18a, FIG. 29
Description: This example covers dose dependent human immune cell activation by small molecule TLR7/8 agonists. Primary human PBMCs were isolated from peripheral whole blood from human donors and were subjected to treatment with increasing concentrations of the agonists diluted in PBS. Cell culture supernatants were harvested 24 h after treatment and analyzed for induction of cytokines via multiplex ELISAs (Luminex).
Several small molecule TLR7/8 agonists were assessed for their ability to activate human immune cells in a dose dependent manner. Primary human PBMCs were isolated from peripheral whole blood from human donors and were subjected to treatment with increasing concentrations of the agonists diluted in PBS. 24 h after treatment cell culture supernatants were harvested and analyzed for induction of cytokines via multiplex ELISAs (Luminex).

hTLR7 = target: T1, hTLR7 (Homo sapiens, UniProt Q9NYK1); assay: HEK Blue hTLR7 cell assay of free TLR7/8 agonists; type: cell-based; conditions: HEK Blue hTLR7 cells, free agonist
T1 construct: expressed in transfected cells; host or cells: HEK Blue hTLR7 cells
T1 sequence (Q9NYK1 27-1049): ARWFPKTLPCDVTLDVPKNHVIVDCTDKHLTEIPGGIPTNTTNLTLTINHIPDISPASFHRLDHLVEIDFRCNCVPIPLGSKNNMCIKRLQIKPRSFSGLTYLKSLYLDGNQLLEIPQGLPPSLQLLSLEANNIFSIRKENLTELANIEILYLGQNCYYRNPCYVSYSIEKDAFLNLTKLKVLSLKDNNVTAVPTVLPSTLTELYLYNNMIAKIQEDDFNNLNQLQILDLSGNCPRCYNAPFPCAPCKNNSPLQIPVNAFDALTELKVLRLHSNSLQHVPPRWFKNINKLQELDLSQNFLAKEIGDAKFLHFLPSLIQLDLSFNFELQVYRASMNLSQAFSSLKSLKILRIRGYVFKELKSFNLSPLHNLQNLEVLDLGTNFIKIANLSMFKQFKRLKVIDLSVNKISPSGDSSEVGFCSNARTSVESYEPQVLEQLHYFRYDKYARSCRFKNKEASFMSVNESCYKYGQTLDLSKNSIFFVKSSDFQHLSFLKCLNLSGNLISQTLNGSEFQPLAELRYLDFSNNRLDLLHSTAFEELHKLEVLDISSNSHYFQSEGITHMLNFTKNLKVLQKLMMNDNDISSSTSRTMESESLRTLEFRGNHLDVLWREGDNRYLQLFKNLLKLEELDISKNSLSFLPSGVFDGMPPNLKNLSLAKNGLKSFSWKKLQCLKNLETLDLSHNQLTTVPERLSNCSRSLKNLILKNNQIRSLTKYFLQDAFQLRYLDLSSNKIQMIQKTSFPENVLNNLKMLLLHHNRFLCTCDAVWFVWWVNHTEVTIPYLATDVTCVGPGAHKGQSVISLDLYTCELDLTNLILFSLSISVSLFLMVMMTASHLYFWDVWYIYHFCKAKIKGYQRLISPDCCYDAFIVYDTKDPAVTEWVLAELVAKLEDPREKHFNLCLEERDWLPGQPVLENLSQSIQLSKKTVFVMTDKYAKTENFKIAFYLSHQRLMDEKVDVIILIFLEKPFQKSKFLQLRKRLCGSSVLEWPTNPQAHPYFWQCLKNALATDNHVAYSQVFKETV
Description: This example covers toll-like receptor 7 (TLR7) and toll-like receptor 8 (TLR8) selectivity of imidazoquinoline agonists. Assessment of TLR7 and TLR8 selectivity for the free TLR7/8 agonists was performed using HEK Blue hTLR7 and hTLR8 cells over a large dose range of compounds. […] Activities were determined based on calculated EC50 (in μM) in each cell line, and are summarized in TABLE 4 below, with columns providing targets and rows providing compounds.

SMILES: CCCCc1nc2c(N)nc3cc(C(=O)OC)ccc3c2n1Cc1ccc(CNC(=O)OCc2ccc(O[C@H]3O[C@H](CO)[C@@H](O)[C@H](O)[C@@H]3O)c(NC(=O)CCNC(=O)[C@H](CCCCNC(=O)CCOCCOCCOCCOCCOCCOCCOCCOCCOCCOCCOCCOC)NC(=O)CCN3C(=O)C=CC3=O)c2)cc1 [Compound 4, methyl 4-amino-2-butyl-1-(4-(((((3-((S)-44-(3-(2,5-dioxo-2,5-dihydro-1H-pyrrol-1-yl)propanamido)-38,45-dioxo-2,5,8,11,14,17,20,23,26,29,32,35-dodecaoxa-39,46-diazanonatetracontan-49-amido)-4-(((2R,3 S,4 S, 5 S,6R)-3,4,5-trihydroxy-6-(hydroxymethyl)tetrahydro-2H-pyran-2-yl)oxy)benzyl)oxy)carbonyl)amino)methyl)benzyl)-1H-imidazo[4,5-c]quinoline-7-carboxylate]
- tumor growth delay and survival (CT26 tumors): some tumor growth delay and survival benefit
- mice surviving at the end of the study (CT26 tumors): ⅙

SMILES: CCCCc1nc2c(N)nc3cc(C(=O)OC)ccc3c2n1CCCCCNC(=O)OCc1ccc(O[C@H]2O[C@H](CO)[C@@H](O)[C@H](O)[C@@H]2O)c(NC(=O)CCNC(=O)[C@H](CCCCNC(=O)CCOCCOCCOCCOCCOCCOCCOCCOCCOCCOCCOCCOC)NC(=O)CCN2C(=O)C=CC2=O)c1 [Compound 7, Methyl 4-amino-2-butyl-1-(5-((((3-((S)-44-(3-(2,5-dioxo-2,5-dihydro-1H-pyrrol-1-yl)propanamido)-38,45-dioxo-2,5,8,11,14,17,20,23,26,29,32,35-dodecaoxa-39,46-diazanonatetracontan-49-amido)-4-(((2R,3 S,4 S, 5 S,6R)-3,4,5-trihydroxy-6-(hydroxymethyl)tetrahydro-2H-pyran-2-yl)oxy)benzyl)oxy)carbonyl)amino)pentyl)-1H-imidazo[4,5-c]quinoline-7-carboxylate]
- tumor growth delay and survival (CT26 tumors): some tumor growth delay over the untreated group
- mice surviving at the end of the study (CT26 tumors): no animals ultimately survived

SMILES: CCCCc1nc2c(N)nc3cc(C(=O)O)ccc3c2n1CCCCCNC(=O)OCc1ccc(O[C@H]2O[C@H](CO)[C@@H](O)[C@H](O)[C@@H]2O)c(NC(=O)CCNC(=O)[C@H](CCCCNC(=O)CCOCCOCCOCCOCCOCCOCCOCCOCCOCCOCCOCCOC)NC(=O)CCN2C(=O)C=CC2=O)c1 [Compound 8, 4-amino-2-butyl-1-(5-((((3-((S)-44-(3-(2,5-dioxo-2,5-dihydro-1H-pyrrol-1-yl)propanamido)-38,45-dioxo-2,5,8,11,14,17,20,23,26,29,32,35-dodecaoxa-39,46-diazanonatetracontan-49-amido)-4-(((2R,3 S,4 S, 5 S,6R)-3,4,5-trihydroxy-6-(hydroxymethyl)tetrahydro-2H-pyran-2-yl)oxy)benzyl)oxy)carbonyl)amino)pentyl)-1H-imidazo[4,5-c]quinoline-7-carboxylic acid]
- tumor growth delay and survival (CT26 tumors): greatly increased tumor growth delay and survival

SMILES: CCCCc1nc2c(N)nc3cc(C(=O)O)ccc3c2n1Cc1ccc(C[N+](C)(C)Cc2ccc(O[C@H]3O[C@H](CO)[C@@H](O)[C@H](O)[C@@H]3O)c(NC(=O)CCNC(=O)[C@H](CCCCNC(=O)CCOCCOCCOCCOCCOCCOCCOCCOCCOCCOCCOCCOC)NC(=O)CCN3C(=O)C=CC3=O)c2)cc1 [Compound 9, N-(4-((4-amino-2-butyl-7-carboxy-1H-imidazo[4,5-c]quinolin-1-yl)methyl)benzyl)-1-(3-((S)-44-(3-(2,5-dioxo-2,5-dihydro-1H-pyrrol-1-yl)propanamido)-38,45-dioxo-2,5,8,11,14,17,20,23,26,29,32,35-dodecaoxa-39,46-diazanonatetracontan-49-amido)-4-(((2R,3 S,4 S, 5 S,6R)-3,4,5-trihydroxy-6-(hydroxymethyl)tetrahydro-2H-pyran-2-yl)oxy)phenyl)-N,N-dimethylmethanaminium]
- anti-tumor activity (tumor volume, survival) (Renca tumors): greatest potency; also recorded: superior potency
- tumor growth delay and survival (CT26 tumors): potent tumor growth delay and a long-term overall survival benefit

SMILES: CCCCc1nc2c(N)nc3cc(C(=O)O)ccc3c2n1Cc1ccc(C[N+](C)(C)Cc2ccc(O[C@H]3O[C@H](CO)[C@@H](O)[C@H](O)[C@@H]3O)c(NC(=O)CCNC(=O)CCN3C(=O)C=CC3=O)c2)cc1 [Compound 14, N-(4-((4-amino-2-butyl-7-carboxy-1H-imidazo[4,5-c]quinolin-1-yl)methyl)benzyl)-1-(3-(3-(3-(2,5-dioxo-2,5-dihydro-1H-pyrrol-1-yl)propanamido)propanamido)-4-(((2R,3S,4S,5S,6R)-3,4,5-trihydroxy-6-(hydroxymethyl)tetrahydro-2H-pyran-2-yl)oxy)phenyl)-N,N-dimethylmethanaminium]
- anti-tumor activity (tumor volume, survival) (Renca tumors): greatest potency

SMILES: CCCCc1nc2c(N)nc3cc(C(=O)O)ccc3c2n1CC(C)O (centres unmarked) [S5b]
- IFNα, IL1β, MIP1β, TNFα induction, C7 carboxylic acid vs parent C7 methyl ester (primary human PBMCs; free drug, FIG. 3): markedly lower potency and activity than its corresponding parent methyl ester compound

SMILES: CCCCc1nc2c(N)nc3cc(C(=O)OC)ccc3c2n1Cc1ccc(CN)cc1 [S8a]
- concentration eliciting cytokine responses (IFNg, IL1β, MIP1β, TNFα) (primary human PBMCs; single donor, 24 h, FIG. 1): < 0.1 µM

SMILES: CCCCc1nc2c(N)nc3cc(C(=O)OC)ccc3c2n1Cc1ccc(CN2CCCC2)cc1 [S65a]
- potency to induce MCP1 and IP10 (primary human PBMCs; free drug, FIG. 30): enhanced potency to induce MCP1 and IP10 compared to compounds S18a
- potency and activity of cytokine induction (IL6, TNFα, MCP1, IP10) (primary human PBMCs; free drug, FIG. 30): other two most potent compounds

SMILES: CCCCc1nc2c(N)nc3cc(C(=O)OC)ccc3c2n1CCc1ccc(CN)cc1 [S76a]
- EC50 (hTLR7): 3.44 µM

SMILES: CCCCc1nc2c(N)nc3cc(C(=O)OC)ccc3c2n1CCCCCN(C)C [S77a]
- EC50 (hTLR7): 2.82 µM

SMILES: COCCc1nc2c(N)nc3cc(C(=O)OC)ccc3c2n1Cc1ccc(CN)cc1 [S78a]
- EC50 (hTLR7): 3.78 µM

SMILES: CCCCc1nc2c(N)nc3cc(C(=O)OC)ccc3c2n1Cc1ccc(CN2CCOCC2)cc1 [S81a]
- maximal level of IL6, MCP1 and IP10 (primary human PBMCs; free drug, FIG. 30): same maximal level of IL6, MCP1 and IP10 as the other compounds
- maximum level of IL10, IL1b or TNFα (primary human PBMCs; free drug, FIG. 30): not able to reach the same maximum level
- potency and activity of cytokine induction (IL6, TNFα, MCP1, IP10) (primary human PBMCs; free drug, FIG. 30): greater activity than compound S82a
- TLR7 vs TLR8 binding profile (primary human PBMCs; inferred from the cytokine profile): TLR7 vs TLR8 skewed binding profile

SMILES: CCCCc1nc2c(N)nc3cc(C(=O)O)ccc3c2[nH]1 [S82b]
- potency and activity of cytokine induction (IL6, TNFα, MCP1, IP10) (primary human PBMCs; free drug, FIG. 30): greater activity than compound S84a

SMILES: CCCCc1nc2c(N)nc3cc(C(=O)OC)ccc3c2n1Cc1ccc(CN(CC)CC)cc1 [S83a]
- potency to activate human PBMCs (IL6, IL1b, MIP1b, TNFα) (primary human PBMCs; free drug): slightly enhanced potency
- potency and activity of cytokine induction (IL6, TNFα, MCP1, IP10) (primary human PBMCs; free drug, FIG. 30): highest maximal cytokine and potency to induce cytokine of all compounds tested

SMILES: CCCCc1nc2c(N)nc3cc(C(=O)OC)ccc3c2n1Cc1ccc(CN2CCCCC2)cc1 [S85a]
- potency to activate human PBMCs (IL6, IL1b, MIP1b, TNFα) (primary human PBMCs; free drug): slightly decreased potency
